Test results from patent publication US8999955B2, “Tetrahydrocyclopenta[c]acridine derivatives as kinase inhibitors and biological” (Centre National de la Recherche Scientifique, priority 2008, dated 2015).
“And” between values parts separate entries of the source, which are not always exact repeats. Equal values may be shown once.

What was measured:
SHSY cells = assay: MTS test, viability of SHSY cells; assay type: cell-based; conditions: MTS reduction
Protocol: The viability of SHSY cells is determined by measuring the MTS reduction as described in (6).

CDK5 = CDK5 (Homo sapiens (Human), UniProt Q00535); assay: Enzyme inhibition test, radiolabeled ATP, CDK5; assay type: biochemical; conditions: dose-response curves
Sequence of CDK5 (Q00535 whole entry, species assumed): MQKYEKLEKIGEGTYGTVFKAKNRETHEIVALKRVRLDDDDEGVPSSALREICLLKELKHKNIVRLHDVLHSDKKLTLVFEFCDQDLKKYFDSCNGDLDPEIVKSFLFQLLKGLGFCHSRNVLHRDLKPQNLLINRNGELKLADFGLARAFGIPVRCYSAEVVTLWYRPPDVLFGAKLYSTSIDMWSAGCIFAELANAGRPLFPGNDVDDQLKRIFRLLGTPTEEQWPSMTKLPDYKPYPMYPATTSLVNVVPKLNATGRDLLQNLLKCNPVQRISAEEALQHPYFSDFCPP
Sequence of CDK5 (Q15078 99-307 partner, species assumed): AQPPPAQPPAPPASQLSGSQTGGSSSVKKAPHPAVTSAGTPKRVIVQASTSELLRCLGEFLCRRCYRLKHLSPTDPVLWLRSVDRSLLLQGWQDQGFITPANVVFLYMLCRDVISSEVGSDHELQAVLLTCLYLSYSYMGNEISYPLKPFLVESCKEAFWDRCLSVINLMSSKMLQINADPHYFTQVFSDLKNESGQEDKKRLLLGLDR
Protocol: (§1) The tests are carried out as follows: the enzyme to be assayed was purified, for example by affinity chromatography on agarose beads. The catalytic activity was measured using radiolabeled ATP, at a standard final concentration. The test compounds were added at various concentrations making it possible to establish dose-response curves (activity of the enzyme as a function of the concentration). The IC50 values were calculated from these curves and are given in μM.

CDK1 = assay: Enzyme inhibition test, radiolabeled ATP, CDK1; assay type: biochemical; conditions: dose-response curves
Protocol: as §1

C[Si](C)(C)C1=C2c3nc4ccccc4cc3C(O)CC2CC1=O (racemic) [5-Hydroxy-1-trimethylsilanyl-3,3a,4,5-tetrahydro-2H-cyclopenta[c]acridin-2-one]
melting point: 167 to 168 °C | % survival of SHSY cells at 10 μM (SHSY cells): 85% | IC50 (CDK5): 1.6 to 2.3 µM

C[Si](C)(C)C1=C2c3nc4ccccc4cc3C(O)CC2CC1=O (single isomer, unassigned) [5-hydroxy-1-trimethylsilanyl-3,3a,4,5-tetrahydro-2H-cyclopen] [5-hydroxy-1-trimethylsilanyl-3,3a,4,5-tetrahydro-2H-cyclopenta[c]acridin-2-one]
IC50 (CDK5): 26 µM and 3 µM

CC(=O)c1cc2ccccc2nc1C#Cc1ccccn1 [1-(2-(Pyridin-2-ylethynyl)quinolin-3-yl)ethanone]
% survival of SHSY cells at 10 μM (SHSY cells): 4%

C=CC(O)c1cc2ccccc2nc1C#C[Si](C)(C)C (stereo not drawn) [1-(2-(Trimethylsilanylethynyl)quinolin-3-yl)propan-2-en-1-ol]
% survival of SHSY cells at 10 μM (SHSY cells): 0.4%

C[Si](C)(C)C#Cc1nc2ccccc2cc1C(=O)CC[N+](=O)[O-] [1-(2-Trimethylsilanylethynyl)quinolin-3-yl)propan-3-nitro-1-one]
% survival of SHSY cells at 10 μM (SHSY cells): 47%

C=CCC(O)c1cc2ccccc2nc1C#CCOC1CCCCO1 (stereo not drawn) [1-(2-[3-(Tetrahydropyran-2-yloxy)prop-1-ynyl]quinolin-3-yl)but-3-en-1-ol]
% survival of SHSY cells at 10 μM (SHSY cells): 2%

C[Si](C)(C)C1=C2c3nc4ccccc4cc3C(Cl)CC2CC1=O (stereo not drawn) [5-Chloro-1-trimethylsilanyl-3,3a,4,5-tetrahydro-2H-cyclopenta[c]acridin-2-one]
IC50 (CDK1): 3.6 µM | IC50 (CDK5): 63 µM

COc1cc2cc3c(nc2cc1OC)C1=C([Si](C)(C)C)C(=O)CC1CC3O (stereo not drawn) [5-Hydroxy-8,9-dimethoxy-1-trimethylsilanyl-3,3a,4,5-tetrahydro-2H-cyclopenta[c]acridin-2-one]
IC50 (CDK1): 1.7 µM | melting point: 221 to 222 °C | IC50 (CDK5): 3.3 µM

COc1ccc2nc3c(cc2c1)C(O)CC1CC(=O)C([Si](C)(C)C)=C31 (stereo not drawn) [5-Hydroxy-8-methoxy-1-trimethylsilanyl-3,3a,4,5-tetrahydro-2H-cyclopenta[c]acridin-2-one]
IC50 (CDK1): 1.7 µM | melting point: 186 °C | IC50 (CDK5): 4 µM

COc1ccc2cc3c(nc2c1)C1=C([Si](C)(C)C)C(=O)CC1CC3O (stereo not drawn) [5-Hydroxy-9-methoxy-1-trimethylsilanyl-3,3a,4,5-tetrahydro-2H-cyclopenta[c]acridin-2-one]
IC50 (CDK1): 1.6 µM | melting point: 187 °C | % survival of SHSY cells at 10 μM (SHSY cells): 44% | IC50 (CDK5): 4.8 µM

CCCCC1=C2c3nc4ccccc4cc3C(=O)CC2CC1=O (stereo not drawn) [5-Keto-1-butyl-3,3a,4,5-tetrahydro-2H-cyclopenta[c]acridin-2-one]
% survival of SHSY cells at 10 μM (SHSY cells): 38%
